Assay results: patent US20190136188A1, “4HPR AND ITS USE IN THE CULTURING OF HEMATOPOIETIC STEM CELLS” (UNIVERSITY HEALTH NETWORK, priority 2016, published 2019)

Key:
[1] = test system: ex vivo expanded human CB cells in NSG mice; test: Primary xenotransplantation of ex vivo expanded CB cells, 16 weeks
Description: (A) Experimental scheme (B) Representative FACS analysis data of in vitro culture for 16 HSC dose time course (n=3). The number of (C) viable cells, (D) CD15+ myeloid cells, (E) GlyA+ erythroid cells, and (F) CD34+ primitive cells measured for the 16 LTRC dose with HTS flow cytometry analysis at day 8 post-treatment for vehicle control or 4HPR prior to xenotransplantation (n=5 biological replicates, 4 in technical triplicate, marked with different symbols). (G) Human CD45+ engraftment at 16 weeks post transplant in injected femur (n=4, 5 mice/biological experiment). Lineage analysis of control or 4HPR transplanted mice from FIG. 5G for (H) B lymphoid, (I) myeloid, (J) erythroid, and (K) primitive CD34+ at the 16 LTRC dose. (L) CD45+ cells were isolated from 5 biological experiments of the 16 LTRC dose primary mice and transplanted at limiting doses into secondary recipients for 16 weeks. Human CD45+ marking of >0.1% was considered positive for secondary engraftment. Limiting dilutation analysis was performed using ELDA software and the long-term repopulating cell (LTRC) frequency for each biological replicate plotted and the average LTRC frequency calculated.
All bones for each mouse were pooled following chimerism analysis and frozen for subsequent CD34 hierarchy analysis. Flow cytometry analysis were performed on CD34+ enriched cells using Miltenyl human CD34 enrichment protocol on thawed samples for the human CB hierarchy at the 16 HSC dose from 4 biological experiments, marked with different symbols (n=4 mice per biological experiment). The number of (B) CD34+CD19− cells, (C) CD34+CD38-, (D) CD34+CD38+, (E) HSC, (F) MPP, (G) MLP, and (I) GMP were quantitated from each mouse at 16 weeks post-transplant. Representative HSC hierarchy analysis scheme of CD34 enriched cells isolated from mice 16 weeks post-transplantation engrafted with ex vivo cultured CB cells in the presence of (J) vehicle control (black) or (K) 4HPR (green).
(A) The number of cells following 8 days of ex vivo culture at the 16 LTRC dose grown as in FIG. 5A for the indicated drug treatments (n=2). […] (2 biological replicates) (E) CD45+ cells were isolated from 2 biological experiments of the 16 LTRC dose primary mice and transplanted at limiting doses into secondary recipients for 16 weeks. […] Limiting dilutation analysis was performed using ELDA software and the long-term repopulating cell (LTRC) frequency for each biological replicate plotted and the average LTRC frequency calculated.
To determine if 4HPR preserves functional HSC in CB liquid culture, we devised an experimental protocol to test the effect of 4HPR treatment in short-term ex vivo expansion culture on repopulation in serial NSG xenotransplantation to functionally read out LT-HSC (FIG. 5A). […]

[2] = test system: lineage-depleted CB (lin-CB) cells; test: Dose titration of 4HPR, cell viability; type: cell-based; details: Homo sapiens, 72 h, 3 days post-treatment, read-out: concentration giving half maximal cell viability compared to vehicle control
Protocol: (A) Dose response of varying [4HPR] in CB at day 3 post-treatment showing 2 uM 4HPR gives the relative half maximal number of viable cells compared to control. All experiments following are at this 4HPR concentration unless otherwise indicated. […] (C) LC/MS was used to profile the ceramide (Cer), dihydroceramide (dhCer), sphingosine (sph), dihydrosphingosine (dhSph), S1P and dihydro-S1P (dhS1P) levels in lin− CB cells cultured for 8 days with control or 4HPR (n=2). […] (D) HSC, MPP, or GMP were sorted into methylcellulose for CFC assays in the presence of control or 4HPR and colonies were blindly scored following 10-11 days for (D) colonies/100 cells and ((E) colony distribution are shown (n=7). (F) Flow cytometry for erythroid (GlyA+) and monocytic (CD14+) markers in live cells from pooled CFC colonies were scored (n=6). (F) Relative number of colonies from CFC assays comparing the effect of 4HPR or ATRA (n=3) on sorted HSC, MPP or GMP.
However, the functional consequence of 4HPR treatment on human cord blood primitive cells is unknown. […]

For CC1=C(/C=C/C(C)=C/C=C/C(C)=C/C(=O)Nc2ccc(O)cc2)C(C)(C)CCC1 [4HPR, N-(4hydroxyphenyl)retinamide], the “lineage distribution for B lymphoid, myeloid and erythroid” value ([1]; 16 HSC dose, 16 weeks) was “comparable between ctrl and 4HPR transplanted cells”, the “primitive lineage negative CD34+ cells in transplanted mice” value ([1]; 16 LTRC dose, 16 weeks) was “equally prevalent” and the “human CD45 chimerism” value ([1]; 16 weeks post transplant, all cell doses) was “the same CD45 chimerism as vehicle control”. The “HSPC populations of the HSC hierarchy in individual mice” value ([1]; 16 weeks post-transplant, control vs 4HPR expanded cells) was “on average identical” and the IC50 [2] was 2000 nM.
